Consider 1 compound from patent EP0298890A2, “New 2-(P-isobutylphenyl)-propionic acid ester and process for the preparation thereof” (Sune Coma, Nuria, priority 1987, dated 1989).

For series [1], the system named is rat. Description: carrageenin test p.o. in the rat (antiinflammatory effect). In kind it is in vivo. Conditions: comparison of ED₅₀ values.
Series [2] concerns rat. Description: phenylbenzoquinone test p.o. in the rat (analgesic effect). In kind it is in vivo. Conditions: comparison of ED₅₀ values.
The next series in a line: solubility in water. In kind it is physicochemical. As to conditions: qualitative statement, no method given.

As for `CC(C)Cc1ccc(C(C)C(=O)OCCN(C)C)cc1` (stereo not drawn) [I, N,N-dimethylaminoethanol 2-(p-isobutylphenyl)-propionate], the “antiinflammatory activity compared with the formula II compound” value in the series on rat [1] is “same antiinflammatory activity”. The “analgesic activity compared with the formula II compound” value in the series with rat [2] is given as “twice as active as an analgesic”. Also, the “solubility in water compared with the formula II acid” value in the series “solubility in water” is recorded as “more soluble in water”.
